Results on 9 compounds are retold here after patent publication US11071744B2, “Prodrug salts” (AEROMICS, INC., priority 2013, dated 2021).

Molecules are shown by their SMILES. Values after ≈ are worked out from the molar mass of the structure shown. Where a name gives a salt, the structure may show the parent alone. Read-outs that look alike come from different tables or passages of the source.

One data set concerns the target T1, AQP4 (Homo sapiens, UniProt P55087).
T1 construct: expressed in transfected cells; host or cells: CHO
Nature of the data set: AQP Inhibition Cell-Based Assay (Table 1).

A further data set addresses purified AQP4b (Homo sapiens, UniProt P55087). Nature of the data set: Hummel-Dryer style binding assay with [3H]-Compound 4. Here is the method: To support the mechanism of action by which phenylbenzamides directly block AQP4, we perform in vitro binding studies using purified AQP4b and Compound 4 radiolabeled with ^3H. Using a Hummel-Dryer style assay, a gel filtration column is equilibratrated with buffer containing detergent, to maintain solubility of AQP4b, and 1 μM [^3H]-Compound 4. AQP4b is diluted to 250 μM in this column buffer and incubated at RT for 30 min. The sample is then applied to the column, fractions collected and the presence of [^3H]-Compound 4 detected by liquid scintillation counting. […] The rise in [^3H]-Compound 4 from a baseline value of 1 μM represents binding to each of these proteins.

How the values of data set [1] were obtained: (§1) 15 g is dissolved in 1.2 L of water with 120 mM of sodium hydroxide and extracted with 500 ml ethyl acetate to remove phenol and non acid impurities. The aqueous layer is acidified with concentrated HCl to pH 1.2 and extracted with ethyl acetate 1 L followed by 600 ml. […] Ethyl acetate is removed by adding 100 ml of methanol and evaporating. […] Sample kept at RT.

A short description of a further data set: physchem. To be noted: for final pH of solutions: in water. Here is the method: as §1
Data set [2] can be described thus: Bioconversion of prodrug salt to Compound 1 in mouse plasma in vitro. Type of data set: in vitro ADME. The note with it: 20° C.
For data set [3] the following is noted: mice injected IP.
Experimental: Measurements are taken at 15 minutes and 24 hours after a 10 mg/kg i.p. loading dose and 1 mg/ml at 8 μl/h maintenance dose (delivered by an Alzet i.p. osmotic pump, Durect Corp., Cupertino, Calif.) of 2-{[3,5-bis(trifluoromethyl)phenyl]carbamoyl}-4-chlorophenyl phosphate bis ethanolamine salt (n=5 mice/time point, mean±SEM) (FIG. 9). […] Samples are analyzed by tandem LC-MS/MS using C18 reversed-phase chromatography and mass analysis with a triple-quadrapole mass spectrometer.
The test system of data set [4] is mouse water toxicity model. The data set can be described thus: Mouse water toxicity model, survival curves. The note with it: 0.76 mg/kg vs placebo.
Experimental: Mouse Water Toxicity Model—Survival Curves: The in vivo efficacies of the compounds are tested using the mouse water toxicity model, where a mouse is injected with water at 20% of its body weight. […] The resulting euvolemic hyponatremia rapidly leads to CE, making this a practical model to test an inhibitor of the CNS aquaporin, AQP4b.
The ability of mice to survive H2O toxicity is determined in three experiments using 10-12 mice each (16-19 weak old male/female). Deionized water is prepared for injection with either 0.39 mg/kg phenylbenzamide (placebo) or 0.76 mg/kg with test compound.
Data set [5] concerns mouse water toxicity model. The data set can be described thus: Mouse water toxicity model, brain volume by MRI.
Experimental: Mouse Water Toxicity Model—Brain Volume by Magnetic Resonance Imaging (MRI): MRI is used to measure changes in brain volume in response to water shock, using the water toxicity model. As described for the survival and brain water content studies above, mice are injected, IP, with a water bolus alone or water bolus and test compound at 0.76 mg/kg, and changes in brain volume as detected by MRI are monitored. […] High resolution T2-weighted sagittal scans (resolution=0.1 mm×0.1 mm×0.7 mm) of the mouse head are obtained prior to water injection, 5.67 min post water injection, and then every 5.2 minutes until the animal expires from the water loading. Each scan contains twenty-five 0.7 mm contiguous imaging slices of which 14-15 slices contain a portion of the brain. The cross sectional area of the brain in each imaging slice is measured by manual region-of-interest selection using ImageJ. Brain volumes are then calculated for each scan by summing the individual cross sectional brain areas and multiplying by the slice thickness (0.7 mm).
The brain volume by magnetic resonance imaging experiment is also conducted with phenylbenzamide (0.39 mg/kg) and Compound 4 (0.83 mg/kg).
The target in data set [6] is T2, AQP4b (Homo sapiens, UniProt P55087).
T2 construct: expressed in transfected cells
The data set can be described thus: Aquaporin-Mediated Cell Volume Change Assay, CHO-AQP4b cells. To be noted: read-out: inhibition of rate of shrinking, 10 μM, CHO-AQP4b cells, hypertonic shock. The class given is cell-based. The method, then:
(§2) Structure activity relationships (SARs) are determined by assaying analogues of selected hits to guide chemistry for the preparation of new molecules to be tested for improved potency. For this iterative process we use a quantitative kinetic assay—the Aquaporin-Mediated Cell Volume Change Assa—in a 96-well multiplate reader. It detects changes in light scattering by a monolayer of CHO cells expressing the desired AQP as they shrink when exposed to hypertonic solution (300 mOsm→530 mOsm). FIG. 1 depicts the aquaporin-mediated cell volume change assay with AQP4 expressing cells (FIG. 1A) and AQP2 expressing cells (FIG. 1B). The cells expressing aquaporins shrink more rapidly than control cells, due to enhanced water flow, which shrinkage can be inhibited by a compound that inhibits the aquaporin.
(§3) In FIG. 1, aquaporin-expressing cells are shown in the presence of DMSO (triangles) or in the presence of the test compound (here, Compound 3) at 10 μM (squares), along with CHO-CD81 expressing control cells in the presence of DMSO (diamonds). Each curve represents an average of 16 wells in the 96-well plate.
(§4) In FIG. 1A, when the AQP4b cells treated with DMSO are exposed to hypertonic shock, the cells show rapid shrinking, giving a rise in light scattering (increasing relative change in absorbance, Abs/Abs0) followed by a decay as cells detach from the plate. […]

Data set [7] concerns AQP4b. Described as above. To be noted: 10 μM, AQP4 (both splice variants). Type of data set: cell-based. Here is the method:
as §2, §3, §4

Another data set concerns the target T3, AQP2 (Homo sapiens, UniProt P41181).
T3 construct: expressed in transfected cells
T3 sequence (P41181 1-271): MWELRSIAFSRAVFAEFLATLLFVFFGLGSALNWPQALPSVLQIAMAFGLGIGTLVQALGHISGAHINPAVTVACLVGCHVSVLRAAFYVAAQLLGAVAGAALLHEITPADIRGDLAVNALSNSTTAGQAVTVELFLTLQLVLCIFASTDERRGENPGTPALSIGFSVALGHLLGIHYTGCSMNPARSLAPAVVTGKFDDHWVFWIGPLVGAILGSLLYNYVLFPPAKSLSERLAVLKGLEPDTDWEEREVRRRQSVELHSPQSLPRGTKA
Nature of the data set: Aquaporin-Mediated Cell Volume Change Assay, CHO-AQP2 cells. Type of data set: cell-based. The note with it: 10 μM. The method, then: as §2, §3, §4

For the next data set, the target named is T4, AQP1 (Homo sapiens, UniProt P29972).
T4 construct: expressed in transfected cells
T4 sequence (P29972 1-269): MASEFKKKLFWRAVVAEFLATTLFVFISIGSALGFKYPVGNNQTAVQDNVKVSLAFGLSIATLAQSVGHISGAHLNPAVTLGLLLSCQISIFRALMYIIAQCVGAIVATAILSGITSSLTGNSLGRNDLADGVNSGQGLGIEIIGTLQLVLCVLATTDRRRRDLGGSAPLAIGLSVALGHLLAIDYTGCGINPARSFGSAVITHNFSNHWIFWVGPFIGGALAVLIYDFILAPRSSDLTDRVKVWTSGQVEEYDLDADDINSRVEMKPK
The data set can be described thus: Aquaporin-Mediated Cell Volume Change Assay, CHO cells expressing AQP1. Type of data set: cell-based. The note with it: 10 μM. Here is the method: as §2
(§5) The specificity of the compounds is tested against the most closely related of the 13 known aquaporins: AQP1, AQP2, AQP5 and both splice variants of AQP4 (A and B). A stable CHO cell line is created for each of the above aquaporins and the inhibition of water permeability using the Aquaporin-Mediated Cell Volume Change Assay with 10 μM Compound 3 is tested.

Another data set has as its target T5, AQP5 (Homo sapiens, UniProt P55064).
T5 construct: expressed in transfected cells
The data set can be described thus: Aquaporin-Mediated Cell Volume Change Assay, CHO cells expressing AQP5. The note with it: 10 μM. The class given is cell-based. The method, then:
as §2, §5

Data set [8] concerns mouse middle cerebral artery occlusion (MCAo) model. Nature of the data set: MCAo stroke model, survival. The class given is in vivo. To be noted: at 24 h; 2 mg/kg i.p. loading dose plus 1 mg/ml at 8 μl/h pump, vs saline.
Experimental: (§6) To mimic this injury in mice, an intraluminal monofilament model of middle cerebral artery occlusion (MCAo) is used. Occlusion is achieved by inserting a surgical filament into the external carotid artery (ECA) and threading it forward into the internal carotid artery (ICA) until the tip blocks the origin of the MCA. […] This technique is used to study a temporary occlusion in which the MCA is blocked for one hour. The filament is then removed allowing reperfusion to occur for 24 hours before the animals brain is imaged using T2-weighted scans in a 9.4T Bruker MRI scanner at the Case Center for Imaging Research (FIG. 10).
Survival—Mice are treated with Compound 5 using a 2 mg/kg i.p. loading dose and 1 mg/ml at 8 μl/h maintenance dose (delivered by an i.p. osmotic pump) of Compound 5, or given saline (controls; n=17) using an identical approach.
Data set [9] shares this test system. The data set can be described thus: MCAo stroke model, neurological outcome. Type of data set: in vivo.
Experimental: as §6
Neurological Outcome—In the same experiment as above, animals are scored for neurological outcome on a simple 5 point scale described in Manley, G. T. et al., Aquaporin-4 Deletion in Mice Reduces Brain Edema After Acute Water Intoxication and Ischemic Stroke, Nature Medicine, 6, 159-163 (2000).
For data set [10] the test system is unchanged. Nature of the data set: MCAo stroke model, cerebral edema (hemispheric brain volume by MRI).
Experimental: as §6
Cerebral Edema—Mice are given saline or treated with Compound 5 by multi-dosing at 5 mg/kg i.p. every three hours (n=8 per treatment). […] Ipsilateral and contralateral hemispheric volume is measured from the T2-weighted MR images of mice 24 hours post-icus. Relative change in hemispheric volume is calculated as a percent of the difference between ipsilateral brain volume (Vi) and contralateral brain volume (Vc) relative to the contralateral brain volume (Percent Change in Hemispheric Brain Volume=((Vi−Vc)/Vc)×100%.
Where [11] appears, read: solid state, freeze dried salts.

T1 sequence (P55087 23-323, species assumed): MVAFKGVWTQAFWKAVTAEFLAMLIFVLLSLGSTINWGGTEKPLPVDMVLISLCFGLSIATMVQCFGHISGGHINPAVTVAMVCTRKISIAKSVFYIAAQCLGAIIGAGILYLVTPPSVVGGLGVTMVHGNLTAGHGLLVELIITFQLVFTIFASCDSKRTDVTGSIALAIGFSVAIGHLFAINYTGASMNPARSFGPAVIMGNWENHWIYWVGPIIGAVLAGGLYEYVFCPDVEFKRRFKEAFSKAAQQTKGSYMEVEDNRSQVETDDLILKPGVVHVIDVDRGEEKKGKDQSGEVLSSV
T2 sequence (P55087 23-323 limits assumed): as the sequence (P55087 23-323, species assumed) above
Sequence of purified AQP4b (P55087 23-323): as the sequence (P55087 23-323, species assumed) above
T5 sequence (P55064 whole entry, species assumed): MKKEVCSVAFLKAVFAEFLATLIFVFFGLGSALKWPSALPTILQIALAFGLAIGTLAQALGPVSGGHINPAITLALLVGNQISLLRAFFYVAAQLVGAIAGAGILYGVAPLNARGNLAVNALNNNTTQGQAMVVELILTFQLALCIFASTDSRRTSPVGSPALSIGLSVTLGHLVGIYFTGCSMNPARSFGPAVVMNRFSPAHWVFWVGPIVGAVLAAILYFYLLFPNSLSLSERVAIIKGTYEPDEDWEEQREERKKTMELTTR

On to `O=C(Nc1ccccc1)c1ccccc1` [Phenylbenzamide, reference compound], for which the “AQP Inhibition Cell-Based Assay (%)” value at AQP4 is listed as 4.5%.

As for `O=C(Nc1cc(C(F)(F)F)cc(C(F)(F)F)c1)c1cc(C(F)(F)F)ccc1O` [Compound 4, N-(3,5-bis(trifluoromethyl)phenyl)-2-hydroxy-5-(trifluoromethyl)benzamide], the “AQP Inhibition Cell-Based Assay (%)” value on AQP4 came out at 38.9%. For the same compound, on purified AQP4b, the “binding to solubilized AQP4b” value is recorded as “relatively weak binding”.

With `O=C(Nc1cc(C(F)(F)F)cc(C(F)(F)F)c1)c1cc(Cl)ccc1OP(=O)(O)O` [bis ethanolamine salt], in data set [1], the “hydrolysis in the solid state” value is on record as “about 1 % per day” and the “longer term hydrolysis in solution” value was “about 1 % per day”. The solubility in the data set “physchem” (water) was about 10000 µg/mL. The “time to render prodrug undetectable” value in [2] is recorded as “Less than 5 minutes”. Moreover, in [3], the “bioavailability and conversion to Compound 1” value is “good bioavailability and near-complete conversion”; the “prodrug salt in plasma samples” value is reported as “undetectable”.

Regarding `O=C(Nc1cc(C(F)(F)F)cc(C(F)(F)F)c1)c1cc(Cl)ccc1OP(=O)(O)O`, in [1], the “stability at RT” value was “stable at RT for a week or more”. This compound registered a solubility in the data set “physchem” (pH 7, aqueous buffer) of 5000 µg/mL (≈ 10.8 mM).

In “physchem” (water), `O=C(Nc1cc(C(F)(F)F)cc(C(F)(F)F)c1)c1cc(Cl)ccc1O` [Compound 1, N-(3,5-bis(trifluoromethyl)phenyl)-5-chloro-2-hydroxybenzamide] had a solubility in water of 3.8 µg/mL (≈ 0.0099 mM). Moreover, in [4], the “improvement of percent survival” value amounted to 3.2 fold and the “improvement of time to 50% survival” value was “roughly 52 min”. Moreover, the “extent of CE during the period of observation” value in data set [5] (0.76 mg/kg) is recorded as “reduced”. Also, in data set [5] (0.76 mg/kg, from 0.081 to 0.032 min^−1), the “reduction of rate of CE development” value is 2.5 fold. In addition, in [5] (mouse water toxicity model, 0.76 mg/kg IP, LC-MS/MS), the plasma levels lay within 0.03 to 0.06 µg.

With `O=C(Nc1cc(Cl)cc(Cl)c1)c1cc(Cl)ccc1O` [Compound 3, 5-chloro-N-(3,5-dichlorophenyl)-2-hydroxybenzamide], on AQP4b [6], the inhibition at 10 µM turned out to be 55%. The “inhibition of water permeability” value in the data set with AQP4b [7] is reported as “inhibits”; against AQP2, “inhibits”; on AQP1, “poorly inhibits”; on AQP5, “poorly inhibits”.

As for `O=C(Nc1cc(C(F)(F)F)cc(C(F)(F)F)c1)c1cc(Cl)ccc1OP(=O)([O-])O.[Na+]` [mono sodium salt], in [1] (setting [11]), the “hydrolysis in the solid state” value is on record as “about 1 % per day”. The “longer term hydrolysis in solution” value in data set [1] (solution, RT, longer term) is listed as “about 1 % per day”. Also, in “physchem”, the “final pH of solutions” value is listed as about 8.5. Besides, the solubility in “physchem” (water) was about 5000 µg/mL.

`NCCO.O=C(Nc1cc(C(F)(F)F)cc(C(F)(F)F)c1)c1cc(Cl)ccc1OP(=O)(O)O` [mono ethanolamine salt]: in data set [1] (after 5 days at RT), the hydrolysis result was “about 1%”. This compound gave a solubility in the data set “physchem” (water) of about 5000 µg/mL.

For the compound `O=C(Nc1cc(C(F)(F)F)cc(C(F)(F)F)c1)c1cc(Cl)ccc1OP(=O)([O-])[O-].[Na+].[Na+]` [Compound 5], the “hydrolysis in the solid state” value in [1] (setting [11]) is listed as “about 1 % per day”. In data set [1] (solution, RT, longer term), the “longer term hydrolysis in solution” value was “about 1 % per day”. Further, in “physchem”, the solubility in water turned out to be 1000 µg/mL and the “final pH of solutions” value is recorded as about 9.5. The compound further registered a solubility in “physchem” (water) of about 10000 µg/mL. Besides, in [8], the “improvement in overall survival” value is given as 29.4%. The compound also displayed an average neurological score in [9] (5 point scale, control 2.77±0.66) of 0.88±0.31. For the same compound, the “progression of neurological state” value in data set [9] (mouse, in vivo) is listed as “did not progress into a state of severe paralysis or death”. Besides, in [10] (24 hours after MCAo, 5 mg/kg i.p. every three hours, ±SEM, control 13.4%), the “relative change in ipsilateral hemispheric brain volume” value is 4.2±1.7%. Further, the “reduction in brain swelling after MCAo” value in data set [10] (vs saline control) came out at 3.2 fold.

For orientation: solubility means how much of the substance goes into solution per volume. Low readings indicate little dissolved substance, high ones much dissolved substance. By inhibition is commonly meant the drop in the measured response relative to a control, in per cent.
